# Paper PMC9521028, “Lengthening the Guanidine–Aryl Linker of Phenylpyrimidinylguanidines Increases Their Potency as Inhibitors of FOXO3-Induced Gene Transcription” (ACS Omega, 2022)
# Entries after “also recorded” stand apart in the source; their conditions may differ.
# How the values were obtained:
# [1] = Estimation of compound solubility in water (saturated solution, UV-vis); type: physicochemical; details: for solubility at 48 h: aqueous buffer, thermodynamic from solid, 20 mM phosphate (pH 6.5) and 50 mM KCl buffer at 23 °C
# Description: To estimate the solubility, we prepared saturated solutions of the compounds by adding 5 mg of each selected compound to 700 μL of 20 mM phosphate buffer (pH 6.5) containing 50 mM KCl. After 48 h of gentle agitation at room temperature (RT), the solutions were spun down, and the supernatant was filtered through 0.2 μm of SPARTAN 13/0.2 RC filter units (Merck KgaA, Darmstadt, Germany) and diluted 100–200× in the same phosphate buffer. The diluted solutions were transferred into the quartz cuvette, recording UV–vis absorption spectra in the range from 200 to 600 nm on a UV-1800 UV/visible scanning spectrophotometer (Shimadzu, Kyoto, Japan) at room temperature. The compound concentrations were estimated by the single point calibration using the absorption at wavelengths higher than 240 nm outside of DMSO absorption of 2000× diluted 50 mM DMSO-dissolved stock solution in phosphate buffer.
# [2] = test system: FOXO3 binding to the promoter region of DEPP1 in SH-EP/FOXO3 cells; test: DEPP1-luciferase reporter assay of FOXO3 transcriptional activity; type: cell-based; details: for potency in blocking FOXO3 binding to the promoter region of DEPP1, compared with 5ca: initial screen, 50 μM compound; for inhibitory potency on target gene activation by FOXO3 (in words): summary of the reporter data, Figures 2, S2, S3; for potency in blocking FOXO3 binding to the promoter region of DEPP1: 25 and 12.5 μM compound; for efficiency of blocking FOXO3 binding to the promoter region of DEPP1: lower concentrations, down to 0.78 μM
# Description: (§1) The ability of these compounds to inhibit FOXO3 transcriptional activity was further examined by assessing their effect on FOXO3 binding to the promoter region of decidual protein induced by progesterone 1 (DEPP1) after transfecting a DEPP1-luciferase reporter plasmid into SH-EP neuroblastoma cells stably expressing a 4-hydroxy-tamoxifen (4OHT)-regulated FOXO3(A3)ERtm transgene. […] In parallel, the toxicity of the compounds was tested by assessing their effect on endogenous DEPP1 and actin promoters in SH-EP cells.
# Transcriptional activation of the DEPP1 promoter by conditional FOXO3 was assessed after transfection of a DEPP1-luciferase reporter plasmid pGS c10orf10 Prom wt (DEPP1-LUC)[20] into SH-EP/FOXO3 cells using the JetPrime reagent (Polyplus, Berkeley). After 24 h of transfection, mTFP fluorescent protein expression from a cotransfected expression vector was assessed by live cell fluorescence microscopy to verify equal transfection rates before seeding cells into 24-well plates. After 48 h of transfection, the cells were pretreated with indicated concentrations of each compound (30 min) before adding 100 nM 4-hydroxy-tamoxifen (4OHT) for 3 h to activate ectopic FOXO3. Firefly-luciferase was analyzed using the Luciferase Assay System (Promega, Madison). Luminescence intensity was measured in a Hidex Chameleon—Multilabel Microplate Reader (Hidex, Turku, Finland).
# [3] = test system: endogenous DEPP1 and actin promoters in SH-EP cells; test: Toxicity control: endogenous DEPP1 and actin promoter luciferase reporters; type: cell-based
# Description: as §1
# For this purpose, 2 × 10^6 SH-EP cells were transfected with either a DEPP1-LUC-reporter plasmid or an actin-LUC reporter plasmid using JetPrime reagent (Polyplus, Berkeley). Actin-LUC was constructed by inserting a 1.3 kb fragment of the chicken β actin promoter into pGL3-luc reporter vector (Promega, Madison). After 24 h of transfection, the cells were seeded into 24-well plates. After another 24 h, the cells were pretreated with indicated concentrations of compound for 3.5 h. Firefly-luciferase was analyzed using the Luciferase Assay System (Promega, Madison). Luminescence intensity was measured in a Hidex Chameleon—Multilabel Microplate Reader (Hidex, Turku, Finland).
# [4] = test system: FOXO3-induced apoptotic cell death in SH-EP/FOXO3 neuroblastoma cells; test: Resazurin early cell death evaluation assay; type: cell-based; details: for IC50: Neuroblastoma cell, 100 nM 4OHT, 24 h, approximate, toxicity prevented accurate determination, read-out: IC50, inhibition of FOXO3-induced cell death; for IC50 / concentration above which the compound is toxic (spontaneous cell death): SH-EP/FOXO3 cells; for fold lower IC50 than that of 5ca: resazurin assay, ratio to 5ca IC50 of ∼8 μM
# Description: Moreover, we also attempted to determine the IC50 values of 5ci, 5cj, and 5db using a resazurin early cell death evaluation assay in cells expressing a conditional FOXO3 allele that triggers apoptotic cell death upon activation.
# Neuroblastoma cells SH-EP/FOXO3 were seeded into 96-well plates and treated with concentrations 0.05, 0.1, 0.2, 0.39, 0.78, 1.56, 3.125, 6.25, 12.5, 18.75, and 25 μM of 5ca and its derivatives 30 min before activating ectopic FOXO3 by 100 nM 4OHT. For 5ca derivatives, concentrations above 3.125 μM had to be excluded from the analysis due to spontaneous cell death induction. Resazurin salt (Sigma-Aldrich s.r.o., St. Louis, Missouri) was diluted to a final concentration of 0.01% (wt/vol), and 20 μL of this dilution was added to 200 μL of the cell culture in each well 24 h after FOXO3 activation. Resazurin is reduced in viable cells to red-fluorescent resoflurin, which was quantified in a Hidex Chameleon—Multilabel Microplate Reader (Hidex, Turku, Finland) at filter settings 544 nm Ex/616 nm Em.
# FOXO3 = test system: FOXO3; set-up: method as in PMID 31591479, PMID 31789593; details: inhibit the transcriptional program of FOXO3; cited from earlier work
SMILES,solubility at 48 h [1] [µM],"potency in blocking FOXO3 binding to the promoter region of DEPP1, compared with 5ca [2]",solubility in water (in words) [1],inhibitory potency on target gene activation by FOXO3 (in words) [2],potency in blocking FOXO3 binding to the promoter region of DEPP1 [2],other results
"CCCOc1ccc(NC(=N)Nc2nc(C)cc(O)n2)cc1 [5aa, 1-(4-Hydroxy-6-methylpyrimidin-2-yl)-3-(4-propoxyphenyl)guanidine]",100,–,–,–,–,–
"CCCOc1ccc(NC(=N)Nc2nc(C)cc(Cl)n2)cc1 [5ba, 1-(4-Chloro-6-methylpyrimidin-2-yl)-3-(4-propoxyphenyl)guanidine]",20000,more potent than 5ca,–,–,–,–
"Cc1cc(C)nc(NC(=N)Nc2ccccc2)n1 [5cb, 1-(4,6-Dimethylpyrimidin-2-yl)-3-phenylguanidine]",4000,less potent FOXO3 inhibitors than 5ca,insufficient solubility in water,lower ability to inhibit FOXO3,–,–
"Cc1cc(C)nc(NC(=N)NCc2ccccc2)n1 [5cc, 1-Benzyl-3-(4,6-dimethylpyrimidin-2-yl)guanidine]",10000,less potent FOXO3 inhibitors than 5ca,significantly increased solubility in water,lower ability to inhibit FOXO3,–,–
"Cc1ccc(CNC(=N)Nc2nc(C)cc(C)n2)cc1 [5cd, 1-(4,6-Dimethylpyrimidin-2-yl)-3-(4-methylbenzyl)guanidine]",7000,–,improved solubility,did not increase the inhibitory potency,–,–
"Cc1cccc(CNC(=N)Nc2nc(C)cc(C)n2)c1 [5ce, 1-(4,6-Dimethylpyrimidin-2-yl)-3-(3-methylbenzyl)guanidine]",4000,less potent FOXO3 inhibitors than 5ca,–,did not increase the inhibitory potency,–,–
"Cc1cc(C)nc(NC(=N)NCc2ccccc2C)n1 [5cf, 1-(4,6-Dimethylpyrimidin-2-yl)-3-(2-methylbenzyl)guanidine]",2000,–,–,did not increase the inhibitory potency,–,–
"Cc1cc(C)nc(NC(=N)NCc2ccc(C(C)(C)C)cc2)n1 [5cg, 1-(4-(tert-Butyl)benzyl)-3-(4,6-dimethylpyrimidin-2-yl)guanidine]",200,more potent than 5ca,limited the solubility,increased FOXO3 inhibition,the most potent compounds,–
"Cc1cc(C)nc(NC(=N)NCc2ccc(F)cc2)n1 [5ch, 1-(4,6-Dimethylpyrimidin-2-yl)-3-(4-fluorobenzyl)guanidine]",6000,less potent FOXO3 inhibitors than 5ca,sufficient solubility in water,did not increase the inhibitory potency,–,–
"Cc1cc(C)nc(NC(=N)NCc2cccc3ccccc23)n1 [5ci, 1-(4,6-Dimethylpyrimidin-2-yl)-3-(naphthalen-1-ylmethyl)guanidine]",700,more potent than 5ca,low solubility,increased FOXO3 inhibition,the most potent compounds,"efficiency of blocking FOXO3 binding to the promoter region of DEPP1 [2]: more efficiently than 5cg, 5da, and 5dc; inhibition of FOXO3-mediated transcription ([2]; lowest concentration tested, 0.78 μM): significantly inhibited; effect on endogenous DEPP1 and actin promoters (toxicity markers) ([3]; 0.78 μM, SH-EP cells): without any effect; IC50 [4]: ~500 nM; concentration above which the compound is toxic (spontaneous cell death) [4]: higher than 4 μM; fold lower IC50 than that of 5ca [4]: 8–16 ×"
"CCCOc1ccc(NC(=N)Nc2nc(C)cc(NCc3ccccc3)n2)cc1 [5da, 1-(4-(Benzylamino)-6-methylpyrimidin-2-yl)-3-(4-propoxyphenyl)guanidine]",200,more potent than 5ca,–,–,the most potent compounds,–
"CCCOc1ccc(NC(=N)Nc2nc(C)cc(NCCc3ccccc3)n2)cc1 [5db, 1-(4-Methyl-6-(phenethylamino)pyrimidin-2-yl)-3-(4-propoxyphenyl)guanidine]",300,more potent than 5ca,low solubility; also recorded: very low solubility,strongest inhibitor,the most potent compounds,"efficiency of blocking FOXO3 binding to the promoter region of DEPP1 [2]: more efficiently than 5cg, 5da, and 5dc; toxicity compared with other derivatives ([3]; higher concentrations, Figure 2): more toxic than 5ci and 5cj at higher concentrations; IC50 [4]: ~500 nM; concentration above which the compound is toxic (spontaneous cell death) [4]: higher than 4 μM; fold lower IC50 than that of 5ca [4]: 8–16 ×"
"CCCCNc1cc(C)nc(NC(=N)Nc2ccc(OCCC)cc2)n1 [5dc, 1-(4-(Butylamino)-6-methylpyrimidin-2-yl)-3-(4-propoxyphenyl)guanidine]",1700,more potent than 5ca,low solubility,"slightly lower inhibitory efficacy than 5cj, 5ci, and 5db",the most potent compounds,–
CC1(C)[C@@H](OC(=O)CCC(=O)O)CC[C@]2(C)[C@H]3C(=O)C=C4[C@@H]5C[C@@](C)(C(=O)O)CC[C@]5(C)CC[C@@]4(C)[C@]3(C)CC[C@@H]12 [carbenoxolone],–,–,–,–,–,concentration range of FOXO3 inhibition in cancer cells (FOXO3): low micromolar range
CCOc1cc(CC(=O)N[C@@H](CC(C)C)c2ccccc2N2CCCCC2)ccc1C(=O)O [repaglinide],–,–,–,–,–,concentration range of FOXO3 inhibition in cancer cells (FOXO3): low micromolar range
